The source made the active and inactive calls. The calls are words filed in the database; no cut-off is given here.

Assay [1] concerns Lymphocyte. Briefly: Induction of frataxin accumulation in human FRDA-patient isolated lymphocyte at 10 uM assessed as increase in frataxin levels measured by Western blot analysis. In kind it is functional, cell-based.
Assay [2] concerns Flp-In-293. Briefly: Induction of frataxin accumulation in human Flp-In-293 cells stably expressing frataxin at 10 uM assessed as increase in frataxin levels measured after 24 hrs by Western blot analysis. In kind it is functional, cell-based. In general terms: A western blot detects proteins with antibodies after separation by electrophoresis.
Assay [3] concerns Lymphocyte. Briefly: Rescue of aconitase activity in human FRDA-patient isolated lymphocyte at 10 uM […]. In kind it is functional, cell-based.
Assay [4] has as its system Flp-In-293. Briefly: Induction of frataxin accumulation in human Flp-In-293 cells stably expressing frataxin K147R mutant at 10 uM assessed as increase in frataxin levels measured after 24 hrs by Western blot analysis. Type of assay: functional, cell-based.
The subject of assay [5] is Flp-In-293. In words: Induction of frataxin accumulation in human Flp-In-293 cells stably expressing frataxin at 10 uM assessed as increase in frataxin levels measured after 72 hrs by Western blot analysis. Type of assay: functional, cell-based.
Assay [6] deals with T1, Frataxin, mitochondrial (Homo sapiens) (UniProt Q16595).
T1 sequence (whole entry): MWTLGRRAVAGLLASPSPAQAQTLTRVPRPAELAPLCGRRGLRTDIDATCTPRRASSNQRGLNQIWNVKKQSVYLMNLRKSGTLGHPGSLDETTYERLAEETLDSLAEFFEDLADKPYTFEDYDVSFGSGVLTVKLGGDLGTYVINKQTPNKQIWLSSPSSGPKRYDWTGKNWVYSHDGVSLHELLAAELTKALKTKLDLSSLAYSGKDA
Briefly: Inhibition of recombinant frataxin (unknown origin) precursor degradation assessed as half-saturation binding constant (L1/2) and measured by fluorescence based assay.

Assay [7] has as its target T1, Frataxin, mitochondrial (Homo sapiens). Briefly: Inhibition of frataxin ubiquitination in human HEK293 cells transiently co-transfected with HA-Ub and frataxin at 10 uM and measured after 48 hrs by Western blot analysis. In kind it is cell-based.
In assay [8] the test system is Lymphocyte. Briefly: Induction of frataxin accumulation in human FRDA-patient isolated lymphocyte at 1 uM assessed as increase in frataxin levels measured after 4 days by Western blot analysis. Type of assay: functional, cell-based. Conditions: time 4.0 day.

Take `C/C(=N\NC(=O)c1ccccc1)c1ccc2c(c1)Nc1ccccc1S2`: the outcome in assay [1], in assay [2], in assay [3] and in assay [5] was Active. The outcome in assay [4] was inactive. Besides, the K1/2 in assay [6] came to 2.3 µM.

With `C/C(=N\NC(=O)c1cc2ccccc2cc1O)c1ccc2c(c1)Nc1ccccc1S2`, the outcome in assay [2] was Active. For the same compound, the result in assay [4] was inactive. Besides, the inhibition result in assay [7] is “Active”.

As for `C/C(=N\NC(=O)c1ccc(C)cc1C)c1ccc2c(c1)Nc1ccccc1S2`, the outcome in assay [1], in assay [2] and in assay [5] was Active. Also, the result in assay [4] was inactive. Also, the inhibition result in assay [7] was “Active”. Moreover, the K1/2 in assay [6] is 2.9 µM.

Consider `COc1ccccc1C(=O)N/N=C(\C)c1ccc2c(c1)Nc1ccccc1S2`, for which, in assay [8], the result was Active.
